Where “and” joins values, the source holds several entries; their conditions need not be identical. Equal entries are not always repeated. Where two headings read alike, the source gives them in different places. Marks after values point to notes of the source that are not given here.
How the values were obtained:
[1] = system: rat renal proximal tubules; conditions: rat renal proximal tubules with hepatic subcellular fractions; cited from earlier work
[2] = system: Sprague-Dawley rat hepatocytes; conditions: cited from earlier work
[3] = system: isolated renal cortical cells (IRCC); experiment: LDH release from isolated renal cortical cells; conditions: for direct nephrotoxic potential of the aminophenols in decreasing order / Cytotoxicity (LDH release) in words / LDH (% Release) 4-A2CP: IRCC; for direct nephrotoxic potential of the aminophenols in decreasing order: 0.5 and 1.0 mM; for direct nephrotoxic potential of the aminophenols in decreasing order / LDH (% Release) 4-A2CP / LDH (% Release) Pretreatment: 1 h; for Cytotoxicity (LDH release) in words: aminophenol 0.5 mM, 1 h (Fig. 2); for LDH (% Release) 4-A2CP: % of total LDH; for LDH (% Release) 4-A2CP / LDH (% Release) Pretreatment: mean ± S.E.; for Effect of pretreatment on 4-A2CP cytotoxicity: pretreatment concentration and time per Table 1; for LDH (% Release) Pretreatment: pretreatment compound alone, plus 4-A2CP vehicle
LLC-PK1 cells = conditions: cited from earlier work
[4] = system: Fischer 344 rat renal cortical slices; conditions: cited from earlier work
[5] = system: isolated renal cortical cells (IRCC)
peroxidase = conditions: cited from earlier work

SMILES: Nn1nnc2ccccc21 [1-aminobenzotriazole]
- Effect on 4-AP nephrotoxicity [1]: did not alter
- Effect on 4-AP metabolism [2]: did not alter

SMILES: Nc1cc(Cl)c(O)c(Cl)c1 [4-A2,6DCP, 4-amino-2,6-dichlorophenol]
- direct nephrotoxic potential of the aminophenols in decreasing order [3]: 4-A2,6DCP > 4-A2CP > 4-AP > 4-A3CP
- Cytotoxicity (LDH release) in words [3]: marked cytotoxicity was observed

SMILES: Nc1ccc(O)c(Cl)c1 [4-A2CP, 4-amino-2-chlorophenol]
- LDH (% Release) 4-A2CP ([3]; 4-A2CP 0.5 mM alone): 33.0 ± 2.7 ^b % and 52.0 ± 2.5 ^b % and 39.5 ± 0.6 ^b % and 43.0 ± 1.4 ^b % and 38.3 ± 4.9 ^b % and 43.5 ± 3.2 ^b %
- LDH (% Release) 4-A2CP ([3]; 4-A2CP 1.0 mM alone): 42.6 ± 0.6 ^b % and 54.4 ± 2.3 ^b % and 51.3 ± 3.2 ^b % and 51.4 ± 4.9 ^b % and 53.9 ± 6.5 ^b % and 49.9 ± 4.3 ^b %
- direct nephrotoxic potential of the aminophenols in decreasing order [3]: 4-A2,6DCP > 4-A2CP > 4-AP > 4-A3CP
- Cytotoxicity (LDH release) in words [3]: marked cytotoxicity was observed

SMILES: Nc1ccc(O)cc1Cl [4-A3CP, 4-amino-3-chlorophenol]
- direct nephrotoxic potential of the aminophenols in decreasing order [3]: 4-A2,6DCP > 4-A2CP > 4-AP > 4-A3CP
- Cytotoxicity (LDH release) in words [3]: Cytotoxicity was not observed

SMILES: O=C1O[C@H]([C@@H](O)CO)C(O)=C1O [Ascorbate]
- Effect of pretreatment on 4-A2CP cytotoxicity ([3]; 4-A2CP 0.5 and 1.0 mM): attenuated

SMILES: Cc1cc(C(C)(C)C)c(O)c(C(C)(C)C)c1 [BHT, butylated hydroxytoluene]
- Effect on 4-AP cytotoxicity (LLC-PK1 cells): did not prevent

SMILES: c1ccc(Nc2ccc(Nc3ccccc3)cc2)cc1 [DPPD, N,N’-diphenyl-p-phenylenediamine]
- Effect on 4-A2,6-DCP cytotoxicity [4]: unable to attenuate
- Effect of pretreatment on 4-A2CP cytotoxicity [5]: did not reduce

SMILES: N[C@@H](CCC(=O)N[C@@H](CS)C(=O)NCC(=O)O)C(=O)O [Glutathione]
- Effect of pretreatment on 4-A2CP cytotoxicity ([3]; 4-A2CP 1.0 mM): completely attenuated

SMILES: NNC(=O)c1ccncc1 [Isoniazid]
- Effect of pretreatment on 4-A2CP cytotoxicity ([3]; 4-A2CP 0.5 and 1.0 mM): No alteration
- LDH (% Release) Pretreatment ([3]; 1.0 mM): 18.6 ± 0.7% and 20.7 ± 0.9%

SMILES: CC(=O)N1CCN(c2ccc(OCC3COC(Cn4ccnc4)(c4ccc(Cl)cc4Cl)O3)cc2)CC1 (stereo not shown) [Ketoconazole]
- LDH (% Release) Pretreatment ([3]; 0.1 mM): 22.4 ± 0.9% and 26.1 ± 1.7%

SMILES: O=C(O)CC(S)C(=O)O (stereo not shown) [Mercaptosuccinate, mercaptosuccinic acid]
- Effect of pretreatment on 4-A2CP cytotoxicity [5]: attenuated

SMILES: Cn1cc[nH]c1=S [Methimazole]
- LDH (% Release) Pretreatment ([3]; 1.0 mM): 22.0 ± 0.5% and 19.7 ± 2.2%

SMILES: CC(C)(C(=O)c1cccnc1)c1cccnc1 [Metyrapone]
- peroxidase inhibitor properties (peroxidase): but not metyrapone
- Effect of pretreatment on 4-A2CP cytotoxicity ([3]; 4-A2CP 0.5 mM): potentiated
- Effect of pretreatment on 4-A2CP cytotoxicity ([3]; 4-A2CP 1.0 mM): no potentiation or attenuation
- LDH (% Release) Pretreatment ([3]; 1.0 mM): 21.3 ± 0.6% and 20.6 ± 0.9%

SMILES: CC(=O)N[C@@H](CS)C(=O)O [N-Acetyl-L-cysteine]
- Effect of pretreatment on 4-A2CP cytotoxicity ([3]; 4-A2CP 1.0 mM): partially attenuated

SMILES: CCCCCCCCN [N-Octylamine]
- Effect of pretreatment on 4-A2CP cytotoxicity ([3]; 4-A2CP 0.5 and 1.0 mM): No alteration
- LDH (% Release) Pretreatment ([3]; 0.2 mM): 27.5 ± 1.1% and 20.0 ± 0.9%

SMILES: CCCCOCCOCCOCc1cc2c(cc1CCC)OCO2 [Piperonyl butoxide]
- peroxidase inhibitor properties (peroxidase): has peroxidase inhibitor properties
- Effect of pretreatment on 4-A2CP cytotoxicity ([3]; 4-A2CP 0.5 and 1.0 mM): attenuated
- LDH (% Release) Pretreatment ([3]; 1.0 mM): 19.1 ± 2.5% and 25.0 ± 1.0%

SMILES: Cc1c(C)c2c(c(C)c1O)CC[C@@](C)(CCC[C@H](C)CCC[C@H](C)CCCC(C)C)O2 [α-Tocopherol]
- Effect on 4-A2,6-DCP cytotoxicity [4]: unable to attenuate

From article PMC4402242 (Chemico-biological interactions, 2014)
